According to US20140057895A1, “INDAZOLE- AND PYRROLOPYRIDINE-DERIVATIVE AND PHARMACEUTICAL USE THEREOF” (priority 2011, published 2014):
Counter-ions that a name gives are not always drawn. Like-named read-outs stand apart in the source and are kept apart here. One block for each molecule: values may come before it.

What was measured:
5-HT4 receptor = biological target: T1, 5-HT4 receptor (Cavia porcellus, UniProt O70528); experiment: Test Example 3: Guinea pig 5-HT4 receptor binding assay, [3H]-GR113808, striatum membranes (Table 98)
T1 construct: striatum was isolated which was cryopreserved at −80° C. until use; from tissue; host or cells: guinea pig (Slc-Hartley) striatum membranes
Procedure, shortened: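 Striatal membranes from Slc-Hartley guinea pigs were incubated with 0.1 nM [3H]-GR113808 and test compounds in 50 mM Hepes pH 7.4 at 37° C for 30 min; nonspecific binding was defined with 30 μM serotonin. Bound radioactivity was collected by filtration, and IC50 was derived from inhibition of specific binding.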

human 5-HT4b receptor = biological target: T2, human 5-HT4b receptor (Homo sapiens, UniProt Q13639); experiment: Test Example 4: Serotonin 4 (5-HT4) receptor agonist activity assay, cAMP HTRF in CHO cells (Table 100); type: cell-based; conditions: mean value; for Emax: CHO, 0.25 h, intrinsic activity, maximal activity of 5-HT defined as 100%, read-out: IA (%); for EC50: concentration showing 50% of IA
T2 construct: expressed in transfected cells; host or cells: CHO cells (G418 selection)
Description: The cAMP measurement test used herein was carried out by using CISBIO HTRF (trademark) cAMP Hirange kit according to the manufacturer's instructions attached therewith.
CHO cells expressing human 5-HT4b receptor were incubated in Medium 1 [DMEM/1% NEAA, 1% penicillin/streptomycin (P/S), 0.2 mg/mL GENETICIN (G418), 10% FBS] at 37° C. under 5% CO2 condition. Then, the cells were put into Medium 2 (DMEM/10000 cut FBS, G-418, P/S, NEAA) for 1 to 2 hours, and collected by treating with trypsin containing EDTA. The collected cells were suspended in Assay Buffer 1 [100 mM Hanks/HEPES buffer (pH 7.4)], the suspended cells were mixed with the testing compound on 384-well plates, and the cells were incubated at 31° C. for 15 minutes. To the cells were added cAMP-cryptate solution and cAMP-d2 solution, and they were incubated at room temperature for 1 hour. Then, time-resolved fluorescence was measured by En Vision (excitation wavelength: 330 nm, fluorescence wavelength: 620/665 nm).
An intrinsic activity of the compound [IA (%)] and a concentration showing 50% of IA [EC50 (nM)] were calculated from the obtained results. In particular, the intrinsic activity (IA) was calculated on the basis of the maximal activity of 5-HT (measured from 10^−11 M to 10^−7 M) defined as 100%.
In the following table, the compounds used in the test are shown in numbers which correspond to the Example numbers above where the preparations of the compounds are described.

[1] = Guinea pig 5-HT4 receptor binding assay, [3H]-GR113808, striatum membranes, mean value of each group, read-out: IC50

T2 sequence (Q13639 whole entry): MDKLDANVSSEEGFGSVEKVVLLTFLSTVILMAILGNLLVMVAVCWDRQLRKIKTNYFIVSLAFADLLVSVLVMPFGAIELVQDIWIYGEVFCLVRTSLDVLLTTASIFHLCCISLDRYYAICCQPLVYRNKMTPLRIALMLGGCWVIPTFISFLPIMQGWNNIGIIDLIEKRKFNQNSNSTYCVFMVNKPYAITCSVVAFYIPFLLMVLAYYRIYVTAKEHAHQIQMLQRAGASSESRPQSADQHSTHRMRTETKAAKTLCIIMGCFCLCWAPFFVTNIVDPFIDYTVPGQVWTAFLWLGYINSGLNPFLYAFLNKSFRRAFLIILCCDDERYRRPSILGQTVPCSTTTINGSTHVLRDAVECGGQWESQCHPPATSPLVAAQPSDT
T1 sequence (O70528 whole entry): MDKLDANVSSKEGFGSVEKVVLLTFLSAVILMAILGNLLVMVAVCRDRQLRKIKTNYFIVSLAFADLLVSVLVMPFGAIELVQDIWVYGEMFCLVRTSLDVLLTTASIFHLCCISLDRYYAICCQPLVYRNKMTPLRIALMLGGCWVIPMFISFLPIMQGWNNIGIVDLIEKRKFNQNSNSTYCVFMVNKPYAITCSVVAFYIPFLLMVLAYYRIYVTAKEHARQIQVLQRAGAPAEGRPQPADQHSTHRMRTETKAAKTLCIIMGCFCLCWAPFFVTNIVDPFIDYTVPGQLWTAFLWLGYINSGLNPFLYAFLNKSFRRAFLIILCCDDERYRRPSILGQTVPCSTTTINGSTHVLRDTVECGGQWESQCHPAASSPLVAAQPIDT

IC50 (5-HT4 receptor; [1]): < 20 nM
Emax (human 5-HT4b receptor): 64.4%
EC50 (human 5-HT4b receptor): 8.3 nM
Compound: COC(=O)N1CCC(N2CCC(c3nc(-n4nc(C(C)C)c5ccc(F)c(F)c54)no3)CC2)CC1 [Example 463, methyl 4-{3-[6,7-difluoro-3-(propan-2-yl)-1H-indazol-1-yl]-1,2,4-oxadiazol-5-yl}-1,4′-bipiperidine 1′-carboxylate trifluoroacetate]

IC50 (5-HT4 receptor; [1]): < 20 nM
Emax (human 5-HT4b receptor): 70%
EC50 (human 5-HT4b receptor): 31.2 nM
Compound: CC(=O)N1CCC(N2CCC(c3nc(-n4nc(C(C)C)c5ccc(F)c(F)c54)no3)CC2)CC1 [Example 464, 1-(4-{3-[6,7-difluoro-3-(propan-2-yl)-1H-indazol-1-yl]-1,2,4-oxadiazol-5-yl}-1,4′-bipiperidin-1′-yl}ethanone trifluoroacetate]

IC50 (5-HT4 receptor; [1]): 81.1 nM
Emax (human 5-HT4b receptor): 72.5%
EC50 (human 5-HT4b receptor): 6.9 nM
Compound: CC(=O)N1CC(CN2CCC(c3nc(-n4nc(C(C)C)c5ccccc54)no3)CC2)C1 [Example 467, 1-{3-[(4-{3-[3-(propan-2-yl)-1H-indazol-1-yl]-1,2,4-oxadiazol-5-yl}piperidin-1-yl)methyl]azetidin-1-yl}ethanone trifluoroacetate]

IC50 (5-HT4 receptor; [1]): < 20 nM
Emax (human 5-HT4b receptor): 69.8%
EC50 (human 5-HT4b receptor): 22.4 nM
Compound: CCc1nn(-c2noc(C3CCN(CC4CN(C(C)=O)C4)CC3)n2)c2c(F)c(F)ccc12 [Example 468, 1-[3-({4-[3-(3-ethyl-6,7-difluoro-1H-indazol-1-yl)-1,2,4-oxadiazol-5-yl]piperidin-1-yl}methyl)azetidin-1-yl]ethanone trifluoroacetate]

IC50 (5-HT4 receptor; [1]): 20.4 nM
Emax (human 5-HT4b receptor): 68.8%
EC50 (human 5-HT4b receptor): 5.3 nM
Compound: CCc1nn(-c2noc(C3CCN(CC4CN(C(=O)COC)C4)CC3)n2)c2c(F)c(F)ccc12 [Example 469, 1-[3-({4-[3-(3-ethyl-6,7-difluoro-1H-indazol-1-yl)-1,2,4-oxadiazol-5-yl]piperidin-1-yl}methyl)azetidin-1-yl]-2-methoxyethanone trifluoroacetate]

IC50 (5-HT4 receptor; [1]): 30 nM
Emax (human 5-HT4b receptor): 70.4%
EC50 (human 5-HT4b receptor): 13.4 nM
Compound: CCc1nn(-c2noc(C3CCN(CC4CN(C(=O)OC)C4)CC3)n2)c2c(F)c(F)ccc12 [Example 470, methyl 3-({4-[3-(3-ethyl-6,7-difluoro-1H-indazol-1-yl)-1,2,4-oxadiazol-5-yl]piperidin-1-yl}methyl)azetidine-1-carboxylate trifluoroacetate]

IC50 (5-HT4 receptor; [1]): 29.7 nM
Emax (human 5-HT4b receptor): 54.3%
EC50 (human 5-HT4b receptor): 47.2 nM
Compound: CC(=O)N1CC(CN2CCC(c3nc(-n4nc(C(C)C)c5ccc(F)c(F)c54)no3)CC2)C1 [Example 472, 1-{3-[(4-{3-[6,7-difluoro-3-(propan-2-yl)-1H-indazol-1-yl]-1,2,4-oxadiazol-5-yl}piperidin-1-yl)methyl]azetidin-1-yl}ethanone trifluoroacetate]

IC50 (5-HT4 receptor; [1]): 23.8 nM
Emax (human 5-HT4b receptor): 58.5%
EC50 (human 5-HT4b receptor): 23.1 nM
Compound: COCC(=O)N1CC(CN2CCC(c3nc(-n4nc(C(C)C)c5ccc(F)c(F)c54)no3)CC2)C1 [Example 473, 1-{3-[(4-{3-[6,7-difluoro-3-(propan-2-yl)-1H-indazol-1-yl]-1,2,4-oxadiazol-5-yl}piperidin-1-yl)methyl]azetidin-1-yl}-2-methoxyethanone trifluoroacetate]

IC50 (5-HT4 receptor; [1]): 20.2 nM
Emax (human 5-HT4b receptor): 89.4%
EC50 (human 5-HT4b receptor): 34.4 nM
Compound: COC(=O)N1CC(CN2CCC(c3nc(-n4nc(C(C)C)c5ccc(F)c(F)c54)no3)CC2)C1 [Example 474, methyl 3-[(4-{3-[6,7-difluoro-3-(propan-2-yl)-1H-indazol-1-yl]-1,2,4-oxadiazol-5-yl}piperidin-1-yl)methyl]azetidine-1-carboxylate trifluoroacetate]

IC50 (5-HT4 receptor; [1]): 67.9 nM
Emax (human 5-HT4b receptor): 61%
EC50 (human 5-HT4b receptor): 13.6 nM
Compound: CC(=O)N1CCC(CN2CCC(c3nc(-n4nc(C(C)C)c5ccccc54)no3)CC2)CC1 [Example 475, 1-{4-[(4-{3-[3-(propan-2-yl)-1H-indazol-1-yl]-1,2,4-oxadiazol-5-yl}piperidin-1-yl)methyl]piperidin-1-yl}ethanone trifluoroacetate]

IC50 (5-HT4 receptor; [1]): < 20 nM
Emax (human 5-HT4b receptor): 65.5%
EC50 (human 5-HT4b receptor): 11.4 nM
Compound: CCc1nn(-c2noc(C3CCN(CC4CCN(C(=O)COC)CC4)CC3)n2)c2c(F)c(F)ccc12 [Example 477, 1-[4-({4-[3-(3-ethyl-6,7-difluoro-1H-indazol-1-yl)-1,2,4-oxadiazol-5-yl]piperidin-1-yl}methyl)piperidin-1-yl]-2-methoxyethanone trifluoroacetate]

The next lines start with the molecule.

Compound: CCc1nn(-c2noc(C3CCN(C(C)C)CC3)n2)c2c(F)c(F)ccc12 [Example 445, 3-ethyl-6,7-difluoro-1-{5-[1-(propan-2-yl)piperidin-4-yl]-1,2,4-oxadiazol-3-yl}-1H-indazole trifluoroacetate]
IC50 (5-HT4 receptor; [1]): < 20 nM
Emax (human 5-HT4b receptor): 52.1%
EC50 (human 5-HT4b receptor): 13.2 nM

Compound: CCc1nn(-c2noc(C3CCN(C4CCCC4)CC3)n2)c2c(F)c(F)ccc12 [Example 447, 1-[5-(1-cyclopentylpiperidin-4-yl)-1,2,4-oxadiazol-3-yl]-3-ethyl-6,7-difluoro-1H-indazole-trifluoroacetate]
IC50 (5-HT4 receptor; [1]): < 20 nM
Emax (human 5-HT4b receptor): 56.8%
EC50 (human 5-HT4b receptor): 12.2 nM

Compound: CCc1nn(-c2noc(C3CCN(C4CCOCC4)CC3)n2)c2c(F)c(F)ccc12 [Example 448, 3-ethyl-6,7-difluoro-1-{5-[1-(tetrahydro-2H-pyran-4-yl)piperidin-4-yl]-1,2,4-oxadiazol-3-yl}-1H-indazole trifluoroacetate]
IC50 (5-HT4 receptor; [1]): < 20 nM
Emax (human 5-HT4b receptor): 57.5%
EC50 (human 5-HT4b receptor): 8.9 nM

Compound: CCc1nn(-c2noc(C3CCN(CC4CCOCC4)CC3)n2)c2c(F)c(F)ccc12 [Example 449, 3-ethyl-6,7-difluoro-1-{5-[1-(tetrahydro-2H-pyran-4-ylmethyl)piperidin-4-yl]-1,2,4-oxadiazol-3-yl}-1H-indazole trifluoroacetate]
IC50 (5-HT4 receptor; [1]): < 20 nM
Emax (human 5-HT4b receptor): 76.4%
EC50 (human 5-HT4b receptor): 31.2 nM

Compound: CC(C)c1nn(-c2noc(C3CCN(C(C)C)CC3)n2)c2c(F)c(F)ccc12 [Example 450, 6,7-difluoro-3-(propan-2-yl)-1-{5-[1-(propan-2-yl)piperidin-4-yl]-1,2,4-oxadiazol-3-yl}-1H-indazole trifluoroacetate]
IC50 (5-HT4 receptor; [1]): < 20 nM
Emax (human 5-HT4b receptor): 87.7%
EC50 (human 5-HT4b receptor): 15.8 nM

Compound: CC(C)c1nn(-c2noc(C3CCN(C4CCC4)CC3)n2)c2c(F)c(F)ccc12 [Example 451, 1-[5-(1-cyclobutylpiperidin-4-yl)-1,2,4-oxadiazol-3-yl]-6,7-difluoro-3-(propan-2-yl)-1H-indazole-trifluoroacetate]
IC50 (5-HT4 receptor; [1]): < 20 nM
Emax (human 5-HT4b receptor): 83.1%
EC50 (human 5-HT4b receptor): 13.8 nM

Compound: CC(C)c1nn(-c2noc(C3CCN(C4CCC4)C3)n2)c2c(F)cccc12 (stereo not drawn) [Example 455, 1-[5-(1-cyclobutylpyrrolidin-3-yl)-1,2,4-oxadiazol-3-yl]-7-fluoro-3-(propan-2-yl)-1H-indazole]
IC50 (5-HT4 receptor; [1]): < 20 nM
Emax (human 5-HT4b receptor): 99%
EC50 (human 5-HT4b receptor): 28.1 nM

Compound: CC(=O)N1CCC(N2CCC(O)(c3nc(-n4nc(C(C)C)c5cccc(F)c54)no3)CC2)CC1 [Example 457, 1-(4-{3-[7-fluoro-3-(propan-2-yl)-1H-indazol-1-yl]-1,2,4-oxadiazol-5-yl}-4-hydroxy-1,4′-bipiperidin-1′-yl)ethanone]
IC50 (5-HT4 receptor): 85.3 nM
Emax (human 5-HT4b receptor): 72.2%
EC50 (human 5-HT4b receptor): 12.7 nM

Compound: CC(=O)N1CCC(N2CCC(c3nc(-n4nc(C(C)C)c5ccccc54)no3)CC2)CC1 [Example 458, 1-(4-{3-[3-(propan-2-yl)-1H-indazol-1-yl]-1,2,4-oxadiazol-5-yl}-1,4′-bipiperidin-1′-yl)ethanone trifluoroacetate]
IC50 (5-HT4 receptor; [1]): 66 nM
Emax (human 5-HT4b receptor): 85.4%
EC50 (human 5-HT4b receptor): 2.7 nM

Compound: CCc1nn(-c2noc(C3CCN(C4CCN(C(=O)OC)CC4)CC3)n2)c2c(F)c(F)ccc12 [Example 459, methyl 4-[3-(3-ethyl-6,7-difluoro-1H-indazol-1-yl)-1,2,4-oxadiazol-5-yl]-1,4′-bipiperidine-1′-carboxylate trifluoroacetate]
IC50 (5-HT4 receptor; [1]): < 20 nM
Emax (human 5-HT4b receptor): 68.2%
EC50 (human 5-HT4b receptor): 7.6 nM

Compound: CCc1nn(-c2noc(C3CCN(C4CCN(C(C)=O)CC4)CC3)n2)c2c(F)c(F)ccc12 [Example 460, 1-{4-[3-(3-ethyl-6,7-difluoro-1H-indazol-1-yl)-1,2,4-oxadiazol-5-yl]-1,4′-bipiperidin-1′-yl}ethanone trifluoroacetate]
IC50 (5-HT4 receptor; [1]): < 20 nM
Emax (human 5-HT4b receptor): 78.6%
EC50 (human 5-HT4b receptor): 5.3 nM

Compound: CCc1nn(-c2noc(C3CCN(C4CCN(C(=O)COC)CC4)CC3)n2)c2c(F)c(F)ccc12 [Example 461, 1-{4-[3-(3-ethyl-6,7-difluoro-1H-indazol-1-yl)-1,2,4-oxadiazol-5-yl]-1,4′-bipiperidin-1′-yl}-2-methoxyethanone trifluoroacetate]
IC50 (5-HT4 receptor; [1]): < 20 nM
Emax (human 5-HT4b receptor): 65.5%
EC50 (human 5-HT4b receptor): 4.4 nM
